Measurements: ChEMBL document CHEMBL1137496, “Inactivation of soybean sterol 24-C-methyltransferase by elongated sterol side chains at C26” (Bioorg Med Chem Lett, 2007)

B1: S-adenosyl-L-methionine:delta24-sterol-C-methyltransferase (Glycine max), Q43445 (protein)
chain: MQKKKKNRNEVVLCSAEGTGGCSRLAAMDLASNLGGKIDKAEVLSAVQKYEKYHVCYGGQEEERKANYTDMVNKYYDLVTSFYEFGWGESFHFAPRWKGESLRESIKRHEHFLPLQLGLKPGQKVLDVGCGIGGPLREISRFSSTSITGLNNNEYQITRGKELNRIAGVDKTCNFVKADFMKMPFPDNSFDAVYAIEATCHAPDAYGCYKEIFRVLKPGQYFAAYEWCMTDSFDPQNPEHQKIKAEIEIGDGLPDIRLTAKCLEALKQAGFEVIWEKDLAVDSPLPWYLPLDKSHFSLSSFRLTAVGRLFTKNMVKVLEYVGLAPKGSLRVQDFLEKAAEGLVEGGKREIFTPMYFFLARKPDLDRN

Experiments:
[1] = target: T1, S-adenosyl-L-methionine:delta24-sterol-C-methyltransferase (Glycine max) (UniProt Q43445); experiment: (§1) Inhibition of soybean recombinant SMT expressed in Escherichia coli
T1 sequence (whole entry): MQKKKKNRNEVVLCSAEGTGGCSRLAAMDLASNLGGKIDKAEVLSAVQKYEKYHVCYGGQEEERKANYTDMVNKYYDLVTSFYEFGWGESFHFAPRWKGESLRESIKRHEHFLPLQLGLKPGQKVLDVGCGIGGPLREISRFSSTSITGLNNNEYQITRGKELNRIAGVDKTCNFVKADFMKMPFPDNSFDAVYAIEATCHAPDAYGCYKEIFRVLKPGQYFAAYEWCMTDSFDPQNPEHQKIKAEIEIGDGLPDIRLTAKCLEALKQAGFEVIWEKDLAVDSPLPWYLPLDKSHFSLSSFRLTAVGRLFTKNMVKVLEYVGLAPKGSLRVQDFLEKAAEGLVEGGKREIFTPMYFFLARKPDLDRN

[2] = target: T2, S-adenosyl-L-methionine:delta24-sterol-C-methyltransferase (Glycine max, UniProt Q43445); experiment: as §1
T2 sequence (Q43445 whole entry): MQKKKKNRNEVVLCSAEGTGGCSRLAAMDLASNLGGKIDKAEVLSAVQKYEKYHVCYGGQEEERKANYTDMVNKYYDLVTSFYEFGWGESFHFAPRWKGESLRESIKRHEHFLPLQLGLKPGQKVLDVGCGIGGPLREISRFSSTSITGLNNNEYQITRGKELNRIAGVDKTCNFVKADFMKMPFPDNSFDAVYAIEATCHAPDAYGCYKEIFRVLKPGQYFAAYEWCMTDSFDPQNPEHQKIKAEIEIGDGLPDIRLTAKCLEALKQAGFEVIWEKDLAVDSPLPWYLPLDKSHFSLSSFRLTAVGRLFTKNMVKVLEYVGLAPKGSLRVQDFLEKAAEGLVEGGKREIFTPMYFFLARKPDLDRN

[3] = target: T1, S-adenosyl-L-methionine:delta24-sterol-C-methyltransferase (Glycine max); experiment: Ratio of Kcat to Kinact for soybean recombinant SMT expressed in Escherichia coli
[4] = target: T1, S-adenosyl-L-methionine:delta24-sterol-C-methyltransferase (Glycine max); experiment: Inhibition of soybean recombinant SMT expressed in Escherichia coli assessed as C-methylation in presence of 50 uM cycloartenol substrate; set-up: scale not given: the % may be the effect or the level left
[5] = target: T1, S-adenosyl-L-methionine:delta24-sterol-C-methyltransferase (Glycine max); experiment: Inhibition of soybean recombinant SMT expressed in Escherichia coli assessed as C-methylation in presence of 100 uM cycloartenol substrate; set-up: scale not given: the % may be the effect or the level left
[6] = substrate: C=C/C(C)=C/CCC(C)[C@H]1CC[C@@]2(C)[C@@H]3CC[C@H]4C(C)(C)[C@@H](O)CCC45CC35CC[C@]12C; experiment: (§2) Activity of soybean recombinant SMT expressed in Escherichia coli; conditions: Glycine max
[7] = substrate: C#C/C(C)=C/CCC(C)[C@H]1CC[C@@]2(C)[C@@H]3CC[C@H]4C(C)(C)[C@@H](O)CCC45CC35CC[C@]12C; experiment: as §2; conditions: Glycine max

Molecule | Kinact [1] [min⁻¹] | Ki [2] [µM] | Ratio [3] | other results
CC(C)SCC[C@@H](C)[C@H]1CC[C@@]2(C)[C@@H]3CC[C@H]4C(C)(C)[C@@H](O)CCC45CC35CC[C@]12C (stereo partly specified) | 0.3 | 2 |  | 
CC(C)=CCC[C@@H](C)[C@H]1CC[C@@]2(C)[C@@H]3CC[C@H]4C(C)(C)[C@@H](O)CCC45CC35CC[C@]12C (stereo partly specified) | 0.29 | 42 |  | 
C=C/C(C)=C/CCC(C)[C@H]1CC[C@@]2(C)[C@@H]3CC[C@H]4C(C)(C)[C@@H](O)CCC45CC35CC[C@]12C (stereo partly specified) | 0.24 | 47 | 0.001 | Activity [4]: 25%; Activity [5]: 45%
C#C/C(C)=C/CCC(C)[C@H]1CC[C@@]2(C)[C@@H]3CC[C@H]4C(C)(C)[C@@H](O)CCC45CC35CC[C@]12C (stereo partly specified) | 0.06 |  | 0.001 | IC50 [2]: 67 µM
B1 |  |  |  | Km [6]: 5 µM; kcat [6]: 5e-06 s⁻¹; Km [7]: 2 µM; kcat [7]: 8.33e-07 s⁻¹
